Experimental data reported in patent US6037351A, “Method of inhibiting hepatitis B virus” (priority 1996, dated 2000).

Tests used:
hepatitis B virus (HBV) = test: HBV DNA from virions secreted into medium of 2.2.15 cells (Southern blot, densitometry); assay type: cell-based, HBV in human hepatoma HepG 2.2.15 cells; conditions: six days
Description: HepG 2.2.15 cells were grown for 6 days in the presence of the indicated concentration of NBDNJ with one change of medium. After the sixth day (seventh day in culture), cells and medium were collected. Autoradiograms of the viral DNA detected by hybridization of membranes to HBV probes are shown.
FIG. 2A: autoradiogram of a Southern blot of DNA recovered from the medium of 2.2.15 cells maintained in medium without NBDNJ (lanes 1 and 2); and in the following NBDNJ concentrations: 200 μg/ml (lane 3); 500 μg/ml (lane 4); and 1000 μg/ml (lane 5).
HepG2 cells were purchased from the European Collection of Animal Cell Cultures (Porton Down, UK). HepG2 2.15 [2.2.15, Sells and Chen, Proc. Natl. Acad. Sci. USA 84, 1005-1009 (1987)] cells were obtained from Dr. George Acs (Mt. Sinai Medical College, New York, USA).
All tissue cultures were maintained in 5% C02 in RPMI 1640 (GIBCO) medium, supplemented with 10% heat inactivated fetal calf serum (Techgen, London, U.K.), 50 units/ml. of penicillin and streptomycin, 1 mM glutamine (GIBCO). For 2.2.15 cells, 200 μgs/ml. Antibiotic G418 (Genticin, GIBCO) was added to the medium, as in Sells and Chen, Proc. Natl. Acad. Sci. USA 84, 1005-1009 (1987).
Medium from approximately 5×10^6 cells was precipitated with polyethylene glycol (PEG) 8000 (Sigma), after clarification, as in Sells and Chen, Proc. Natl. Acad. Sci. USA 84, 1005-1009 (1987), re-suspended in 0.5 ml. phosphate buffered saline (PBS) and sedimented through a cushion of 20% sucrose in PBS for 5 hours at 50,000 rpm in a Beckman T100.3 rotor (approx. 75,000×g).
DNA was prepared from the pellets as in Sells and Chen, Proc. Natl. Acad. Sci. USA 84, 1005-1009 (1987). […]

MHBs (PreS2) antigen = test: ELISA of MHBs (PreS2) antigen in unfractionated culture medium of 2.2.15 cells; assay type: cell-based, HBV
Description: FIG. 3D: Histogram of the area under the averaged peaks of the densitometric tracing of the gel in FIG. 3B. […] Equal volumes of the indicated samples were tested for HBV envelope antigens using the enzyme-linked imminosorbent assay (ELISA) method. Samples of unfractionated medium (FIGS. 4A, 4B and 4C) or partially purified virus (FIGS. 4D, 4E and 4F) from 3-day cultures were tested for HBV SHBs ("S) (FIGS. 4A and 4D), LHBs: "PreS1" (FIGS. 4B and 4E) or MHBs "PreS2" (FIGS. 4C and 4F) epitopes. Cultures were maintained in the indicated concentrations of NBDNJ, expressed in millimolar units and shown along the X axis.
Detection of HBV proteins by the Enzyme Linked Immunoabsorbant assay (ELISA).
Monoclonal antibodies used herein are well-known and are described by Heerman et al., J. Virol. 52, 396-402 (1984), for antibody to PreS1 (MA 18/7); Heerman et al., Intervirology 28: 14-21 (1987), for antibody to PreS2 (Q 19/10), see also Gerlich and Bruss, Molecular Biology of Hepatitis B Virus, ed. A. McLachlan, CRC Press, 109-144 (1992), and in Hepatitis B Vaccines in Clinical Practice, ed. R. W. Ellis, Marcel Dekker, Inc., pp. 41-82 (1992); and Heerman et al., in Viral Hepatitis and Liver Disease, ed. Zuckermann, A. R. Liss, 697-701 (1988), for antibody to S (C20-2).].
Samples were incubated in microtiter wells coated (overnight at 4° C.) with monoclonal antibodies specific for the LHBs, MHBs or SHBs epitopes and blocked with 1% BSA in PBS. After incubation with virus samples in for 1 hour (37° C.), plates were washed 4 times with PBS/0.1% Tween 20 non-ionic detergent.
Bound antigen was detected by incubation with peroxidase conjugated goat anti-HBs antibody (Behring) followed by development in orthophenylenediamine (0.33 mg/ml PBS-peroxide solution). Optical densities were read in a Behring plate reader. Tests on purified virus and total medium were conducted over a series of sample dilutions to insure proper quantification.
To distinguish between these possibilities, the amount and nature of envelope antigens in the culture medium was determined by both ELISA and Western analysis. […]

CCCCN1C[C@H](O)[C@@H](O)[C@H](O)[C@H]1CO [NBDNJ, N-butyl-1,5-dideoxy-1,5-imino-D-glucitol]
inhibition at 500 µg/mL (hepatitis B virus (HBV); Hepatitis B virus, 144 h, NBDNJ 500 μg/ml (2.28 mM), densitometry of FIG. 2A, read-out: decrease in virus specific DNA in medium): 90% | inhibition at 1000 µg/mL (hepatitis B virus (HBV); Hepatitis B virus, 144 h, NBDNJ 1000 μg/ml, densitometry of FIG. 2A, read-out: decrease in virus specific DNA in medium): 99% | virus specific DNA obtained from the media of treated cells (in words) (hepatitis B virus (HBV); NBDNJ 200, 500, 1000 μg/ml): clear dose-dependent decrease | decrease in the amount of MHBs antigen in medium (in words) (MHBs (PreS2) antigen; 1000 μg/ml NBDNJ, 2.2.15 cells): two-fold decrease | decrease in total amount of MHBs (PreS2) antigen in medium (MHBs (PreS2) antigen; highest NBDNJ concentration, 4.5 mM or approximately 1000 μg/ml): approximately 2.5 fold | total amount of MHBs (PreS2) antigen in medium (in words) (MHBs (PreS2) antigen; unfractionated medium, 2.2.15 cells): modest, dose-dependentdecrease
